The values that follow are results of earlier work, collected in PubChem BioAssay AID1259409 (Chemical Carcinogenesis Research Information System (CCRIS), 2018).

The data set deals with rodent chemically induced tumor inhibition, incidence and multiplicity. As to the kind of experiment: CCRIS tumor inhibitor studies. The settings on record: Dose [Inhibitor]: 0.

For `O=c1oc2c(O)c(O)cc3c(=O)oc4c(O)c(O)cc1c4c23`, the “tumour outcome (control, treated, inhibition, significance)” value reads like this: (Carcinogen: 4-(METHYLNITROSOAMINO-1-(PYRIDYL)-1-BUTANONE, 64091-91-4, 4 G/KG DIET BEGINNING 2 WK PRIOR TO CARCINOGEN DOSE (STUDY DURATION: 18 WK), Route [Inhibitor]: ORAL, Species: MOUSE, Strain/Sex: STRAIN-A/FEMALE, Target Tissue: Type of Lesion: LUNG: ADENOMA, Dose [Carcinogen]: 2 MG IN 0.2 ML OF 0.9% NACL ONCE, Promoter: NONE USED) 100%, 100%, 0%, not significant; (Carcinogen: 4-METHYLNITROSOAMINO-1-(PYRIDYL)-1-BUTANONE, 64091-91-4, 4 G/KG DIET BEGINNING 2 WK PRIOR TO CARCINOGEN DOSE AND CONTINUING FOR STUDY DURATION (STUDY DURATION: 18 WK), Route [Inhibitor]: ORAL, Species: MOUSE, Strain/Sex: STRAIN-A/FEMALE, Target Tissue: Type of Lesion: LUNG: ADENOMA, Dose [Carcinogen]: 62.4 UG/ML DRINKING WATER FOR 7 WK (TOTAL DOSE 9.4 MG), Promoter: NONE USED) 100%, 96%, 4%, not calculated; (Carcinogen: 4-NITROQUINOLINE-1-OXIDE, 56-57-5, 400 PPM IN DIET FOR 7 WK BEGINNING 1 WK PRIOR TO START OF CARCINOGEN TREATMENT (STUDY DURATION: 32 WK), Route [Inhibitor]: ORAL, Species: RAT, Strain/Sex: F344/MALE, Target Tissue: Type of Lesion: TONGUE: PAPILLOMA, Dose [Carcinogen]: 20 PPM IN DRINKING WATER FOR 5 WK, Promoter: NONE USED) 1/15 (7%), 0/15 (0%), 100%, not significant; (Carcinogen: 7,12-DIMETHYLBENZ[A]ANTHRACENE, 57-97-6', 1000 PPM IN DIET FOR DURATION OF STUDY BEGINNING CONCURRENTLY WITH CARCINOGEN TREATMENT (STUDY DURATION: 42 WK0, Route [Inhibitor]: ORAL, Species: FISH, Strain/Sex: RAINBOW TROUT/ MALE, FEMALE, Target Tissue: Type of Lesion: LIVER: TUMOR, Dose [Carcinogen]: 750 PPM IN DIET FOR 7 WK, Promoter: NONE USED) 6%, 9%, -50%, not significant; (Carcinogen: 7,12-DIMETHYLBENZ[A]ANTHRACENE, 57-97-6, 5 UMOL IN 0.4 ML ACETONE 20 MIN PRIOR TO EACH PROMOTER DOSE (STUDY DURATION: 47 WK), Route [Inhibitor]: DERMAL, Species: MOUSE, Strain/Sex: CF-1/FEMALE, Target Tissue: Type of Lesion: SKIN: CARCINOMA, Dose [Carcinogen]: 100 NMOL IN 0.2 ML ACETONE ONCE) 67%, 17%, 75%, not calculated; (Carcinogen: 7,12-DIMETHYLBENZ[A]ANTHRACENE, 57-97-6, 5 UMOL IN 0.4 ML ACETONE 20 MIN PRIOR TO EACH PROMOTER DOSE (STUDY DURATION: 47 WK), Route [Inhibitor]: DERMAL, Species: MOUSE, Strain/Sex: CF-1/FEMALE, Target Tissue: Type of Lesion: SKIN: PAPILLOMA, Dose [Carcinogen]: 100 NMOL IN 0.2 ML ACETONE ONCE) 94%, 54%, 43%, not calculated. For the same molecule, the “tumour outcome (control, treated, inhibition, significance)” value (Carcinogen: 7,12-DIMETHYLBENZ[A]ANTHRACENE, 57-97-6, 100 PPM IN DIET FOR 19 WK BEGINNING POST CARCINOGEN TREATMENT (STUDY DURATION: 42 WK), Route [Inhibitor]: ORAL, Species: FISH, Strain/Sex: RAINBOW TROUT/ MALE, FEMALE, Target Tissue: Type of Lesion: STOMACH: TUMOR, Dose [Carcinogen]: 4.16 PPM IN WATER FOR 1 HR, Promoter: NONE USED) was 97%, 65%, 33%, p<0.001; the “tumour outcome (control, treated, inhibition, significance)” value (Carcinogen: 7,12-DIMETHYLBENZ[A]ANTHRACENE, 57-97-6, 100 PPM IN DIET FOR 19 WK BEGINNING POST CARCINOGEN TREATMENT (STUDY DURATION: 42 WK), Route [Inhibitor]: ORAL, Species: FISH, Strain/Sex: RAINBOW TROUT/ MALE, FEMALE, Target Tissue: Type of Lesion: SWIM BLADDER: TUMOR, Dose [Carcinogen]: 4.16 PPM IN WATER FOR 1 HR, Promoter: NONE USED) is on record as 14%, 14%, 0%, not significant; the “tumour outcome (control, treated, inhibition, significance)” value (Carcinogen: 7,12-DIMETHYLBENZ[A]ANTHRACENE, 57-97-6, 250 PPM IN DIET FOR 19 WK BEGINNING POST CARCINOGEN TREATMENT (STUDY DURATION: 42 WK), Route [Inhibitor]: ORAL, Species: FISH, Strain/Sex: RAINBOW TROUT/ MALE, FEMALE, Target Tissue: Type of Lesion: LIVER: TUMOR, Dose [Carcinogen]: 4.16 PPM IN WATER FOR 1HR, Promoter: NONE USED) is given as 7%, 17%, -143%, p<0.001; the “tumour outcome (control, treated, inhibition, significance)” value (Carcinogen: 7,12-DIMETHYLBENZ[A]ANTHRACENE, 57-97-6, 250 PPM IN DIET FOR 19 WK BEGINNING POST CARCINOGEN TREATMENT (STUDY DURATION: 42 WK), Route [Inhibitor]: ORAL, Species: FISH, Strain/Sex: RAINBOW TROUT/ MALE, FEMALE, Target Tissue: Type of Lesion: STOMACH: TUMOR, Promoter: NONE USED) is reported as 97%, 39%, 60%, p<0.001; the “tumour outcome (control, treated, inhibition, significance)” value (Carcinogen: 7,12-DIMETHYLBENZ[A]ANTHRACENE, 57-97-6, 250 PPM IN DIET FOR 19 WK BEGINNING POST CARCINOGEN TREATMENT (STUDY DURATION: 42 WK), Route [Inhibitor]: ORAL, Species: FISH, Strain/Sex: RAINBOW TROUT/MALE, FEMALE, Target Tissue: Type of Lesion: SWIM BLADDER: TUMOR, Dose [Carcinogen]: 4.16 PPM IN WATER FOR 1HR, Promoter: NONE USED) is 14%, 13%, 7%, not significant; the “tumour outcome (control, treated, inhibition, significance)” value (Carcinogen: 7,12-DIMETHYLBENZ[A]ANTHRACENE, 57-97-6, 1000 PPM IN DIET FOR 17 WK BEGINNING POST CARCINOGEN TREATMENT (STUDY DURATION: 42 WK), Route [Inhibitor]: ORAL, Species: FISH, Strain/Sex: RAINBOW TROUT/ MALE, FEMALE, Target Tissue: Type of Lesion: STOMACH: TUMOR, Dose [Carcinogen]: 5.5 PPM IN WATER FOR 1 HR, Promoter: NONE USED) is reported as 88%, 26%, 70%, p<0.001.
